# pIC50: −log10 of the molar value.
# Legend:
# CACO-2 cells = test: Assay C: permeability in CACO-2 cells; type: in vitro ADME; conditions: pairs with and without 4-fluoropiperidyl, CACO2 cells
# Description: (§1) Caco-2 cells (1-2×10^5 cells/1 cm^2 area) are seeded on filter inserts (Costar transwell polycarbonate or PET filters, 0.4 μm pore size) and cultured (DMEM) for 10 to 25 days. Compounds are dissolved in appropriate solvent (like DMSO, 1-20 mM stock solutions). […] The transport solution (TL) is applied to the apical or basolateral donor side for measuring A-B or B-A permeability (3 filter replicates), respectively. Samples are collected at the start and end of experiment from the donor and at various time intervals for up to 2 hours also from the receiver side for concentration measurement by HPLC-MS/MS or scintillation counting. Sampled receiver volumes are replaced with fresh receiver solution.
# (§2) Efflux ratio (ER)=permeability B−A/permeability A−B
# CYP3A4 mRNA = test: Assay D: CYP induction screening assay in primary human hepatocytes; type: in vitro ADME; conditions: Table 9, compounds of the invention, 48 h
# Description: Cryopreserved plateable human hepatocytes (single donor. BioIVT) were thawed and plated in Collagen-I coated 96-well-plates at a cell density of 0.07 million cells per well.
# After a 6 h attachment period, the seeding medium was replaced by serum-free William's medium E supplemented with Matrigel (0.25 mg/ml) and allowed to recover overnight. 24 h post-seeding, serum-free Williams E medium containing the test compound at a final concentration of […] and a final DMSO content of 0.1% and 0.1% DMSO (solvent-treated control), respectively, was added to predefined wells. Exposure solutions were renewed after 24 h.
# After 48 h of treatment in total, the effect of the test compounds on CYP3A4 mRNA expression was assessed using the QuantiGene Plex Gene Expression Assay. Hepatocytes were lysed and total RNA was extracted using the QuantiGene Sample Processing Kit according to the instructions of the manufacturer.
# mRNA quantification was conducted using a customized QuantiGene Plex Panel to analyse CYP3A4 and the housekeeper genes RPL32, EIF4E2 and GUSB according to the instructions of the manufacturer and measured on a Luminex™ instrument. Signal was reported as median fluorescence intensity (MFI), which is proportional to the number of target RNA molecules present in the sample.
# For calculation of CYP3A4 mRNA induction, the signal for CYP3A4 was normalized against the geometric mean of the signal obtained for the housekeeper genes for hepatocytes exposed to test compounds in relation to solvent-treated samples according to the following equation: […]
# [1] = system: SIRPα signalling induced by Raji cells; test: Assay B: SIRPα signalling assay using Raji cells; type: cell-based; conditions: Homo sapiens, Table 4, compounds of the invention, read-out: Inhibition of SIRPα signalling induced by Raji cells: IC50
# Description: Bioassay reagent 1 of the PathHunter Bioassay detection kit (DiscoverX 93-0001) was added to each well of the plate using a multichannel pipette followed by a 15 min incubation at room temperature. Afterwards bioassay reagent 2 was added followed by 60 min incubation at room temperature (incubation in the dark).
# (§3) The analysis of the data was performed using the luminescence signal generated by beta-galactosidase in the PathHunter reporter cell line. The luminescence measurement was done using a Pherastar Multi-Mode Reader.
# QPCT = target: T1, QPCT (Homo sapiens, UniProt Q16769); test: Assay A: biochemical QPCT activity assay (MALDI-TOF MS, CD47 peptide substrate); conditions: Table 2, compounds of the invention, read-out: Inhibition of QPCT: IC50
# T1 construct: purchased Origine (OriGene) TP700028
# T1 sequence (Q16769 29-361): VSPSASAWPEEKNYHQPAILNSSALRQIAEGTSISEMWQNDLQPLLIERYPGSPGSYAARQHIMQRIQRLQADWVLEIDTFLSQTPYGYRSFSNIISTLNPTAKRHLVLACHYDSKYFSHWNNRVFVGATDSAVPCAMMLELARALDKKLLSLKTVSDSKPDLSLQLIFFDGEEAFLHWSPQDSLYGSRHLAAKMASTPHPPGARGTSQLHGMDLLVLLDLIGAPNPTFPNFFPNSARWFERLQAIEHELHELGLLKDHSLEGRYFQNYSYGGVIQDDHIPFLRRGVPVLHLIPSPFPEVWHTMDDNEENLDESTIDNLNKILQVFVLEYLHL
# Description: (§4) QPCT or QPCTL dependent conversion of N-terminal glutamine to pyroglutamate of CD47 was monitored via MALDI-TOF MS. Test compounds were dissolved in 100% DMSO and serially diluted into clear 1,536-well microtiter plates. Enzymatic reactions were set up in assay buffer containing 20 mM Tris pH 7.5, 0.1 mM TCEP, 0.01% BSA, and 0.001% Tween20. […] The plates were incubated for 10 min in a humidified incubator at 24° C. Subsequently, 2.5 μL of CD47 peptide substrate surrogate (^19[…]^33) was added to each well (final concentration: 10 μM for QPCTL/20 μM for QPCT). The plates were mixed for 30 sec at 1,000 rpm and subsequently incubated for 40 min in a humidified incubator at 24° C. […] The plates were sealed with an adhesive foil, mixed for 30 s at 1,000 rpm and stored at room temperature until preparation of the MALDI target plates. MALDI target plates were prepared as described previously. […] QPCT or QPCTL activity was monitored by calculating the ratio between product and internal standard signals followed by normalization to high (100% activity) and low (0% activity) controls. Determination of compound potencies was obtained by fitting the dose-response data to a four-parameter logistical equation.
# murine hepatocytes = test: Assay E: stability in murine hepatocytes; type: in vitro ADME, mouse; conditions: Table 12, compounds of the invention, 1 μM, 5% species serum
# Description: The metabolic degradation of the test compound is assayed in a murine hepatocyte suspension.
# Murine hepatocytes (typically cryopreserved) are incubated in an appropriate buffer system (e.g. Dulbecco's modified eagle medium plus 3.5 μg glucagon/500 mL, 2.5 mg insulin/500 mL and 3.75 mg/500 mL hydrocortison) containing 5% species serum.
# Following a (typically) 30 min preincubation in an incubator (37° C., 10% CO2) 5 μl of test compound solution (80 μM; from 2 mM in DMSO stock solution diluted 1:25 with medium) are added into 395 μl hepatocyte suspension (cell density in the range 0.25-5 Mio cells/mL, typically 1 Mio cells/mL; final concentration of test compound 1 μM, final DMSO concentration 0.05%).
# The cells are incubated for six hours (incubator, orbital shaker) and samples (25 μl) are taken at 0, 0.5, 1, 2, 4 and 6 hours. Samples are transferred into acetonitrile and pelleted by centrifugation (5 min). The supernatant is transferred to a new 96-deepwell plate, evaporated under nitrogen and resuspended.
# Decline of parent compound is analyzed by HPLC-MS/MS
# CLint is calculated as follows CL_[…]=Dose/AUC=(C0/CD)/(AUD+clast/k)×1000/60. C0: initial concentration in the incubation [μM], CD: cell density of vital cells [10e6 cells/mL], AUD: area under the data [μM×h], clast: concentration of last data point [μM], k: slope of the regression line for parent decline [h−1].
# The calculated in vitro hepatic intrinsic clearance can be scaled up to the intrinsic in vivo hepatic Clearance and used to predict hepatic in vivo blood clearance (CL) by the use of a liver model (well stirred model).
# [formula] [formula] [formula] • Hepatocellularity, mouse: 120×10e6 cells/g liver • Liver factor, mouse: 55 g/kg bodyweight • Blood flow, mouse: 90 ml/(min×kg)
# QPCTL = target: T2, QPCTL (Homo sapiens, UniProt Q9NXS2); test: Assay A: biochemical QPCTL activity assay (MALDI-TOF MS, CD47 peptide substrate); conditions: Table 2, compounds of the invention, read-out: Inhibition of QPCTL: IC50
# T2 construct: made in house
# T2 sequence (Q9NXS2 whole entry, species assumed): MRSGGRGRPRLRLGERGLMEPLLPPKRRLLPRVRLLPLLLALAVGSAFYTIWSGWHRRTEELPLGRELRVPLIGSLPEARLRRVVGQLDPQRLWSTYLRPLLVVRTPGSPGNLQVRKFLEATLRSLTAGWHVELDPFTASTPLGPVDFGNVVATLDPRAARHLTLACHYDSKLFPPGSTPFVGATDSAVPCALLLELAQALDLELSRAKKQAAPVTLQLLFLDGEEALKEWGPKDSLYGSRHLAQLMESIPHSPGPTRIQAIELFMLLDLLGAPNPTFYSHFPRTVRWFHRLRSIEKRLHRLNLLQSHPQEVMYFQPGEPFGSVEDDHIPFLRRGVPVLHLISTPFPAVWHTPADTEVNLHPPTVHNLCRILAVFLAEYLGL
# Description: as §4
# [2] = Assay C: permeability in CACO-2 cells; type: in vitro ADME; conditions: human, pH 7.2, Table 7, compounds of the invention, CACO-2 cells; for efflux ratio: permeability B-A/permeability A-B, read-out: Efflux Ratio
# Description: as §1, §2
# [3] = system: SIRPα signalling induced by A549 cells; test: Assay B: SIRPα signalling assay using A549 cells; type: cell-based; conditions: Homo sapiens, Table 4, compounds of the invention, read-out: Inhibition of SIRPα signalling induced by A549 cells: IC50
# Description: Two cell types are independently used: the Raji cell line (lymphoblast-like human cell line derived from B lymphocytes from a Burkitt's lymphoma patient in 1963) and A549 cells (adenocarcinoma human alveolar basal epithelial cells).
# Test compounds were dissolved in 100% DMSO and serially diluted into a white 384-well microtiter cell culture plate (PerkinElmer #60076780 in case of Raji assay; PDL-coated plates Greiner #781945 in case of A549 assay). 5000 Raji cells (ATCC #CC86) or 5000 A549 cells (ATCC #CCL-185) in Assay Complete Cell Plating reagent 30 (DiscoverX 93-0563R30B) were added per well. The assay plate was incubated for 48 h at 37° C., 95% humidity and 5% CO2. 15000 reporter cells (Jurkat PathHunter SIRPαV1, DiscoverX #93-1135C19) were added to each well, and the plate was incubated for 5 h at 37° C., 95% humidity and 5% CO2. Bioassay reagent 1 of the PathHunter Bioassay detection kit (DiscoverX 93-0001) was added to each well of the plate using a multichannel pipette followed by a 15 min incubation at room temperature. Afterwards bioassay reagent 2 was added followed by 60 min incubation at room temperature (incubation in the dark).
# as §3, with “Reader. Dose-response curves & IC50 data were calculated with 4-parameter sigmoidal dose response formula.” for “Reader.”
compound,measurement,setting,value
Cn1cnnc1C1(F)CCN(c2c(C#N)cc(Cl)cc2-c2ccc(F)nc2)CC1 [Example 18 in EP 23161417.3],CACO2 Perm.,CACO-2 cells,66.0 10^−6 cm/sec
Cn1cnnc1C1CCN(c2c(C#N)cc(C(F)(F)F)nc2-c2cnc3nn(C(C)(C)C)c(Cl)c3c2)CC1,CACO2 Perm.,CACO-2 cells,1.0 10^−6 cm/sec
Cn1cnnc1C1(F)CCN(c2c(C#N)ccnc2-c2ccc(F)nc2)CC1 [Example 1 in EP 22188580.9],CACO2 Perm.,CACO-2 cells,28.0 10^−6 cm/sec
Cn1cnnc1C1(F)CCN(c2c(C#N)cccc2-c2cnc3nn(C(C)(C)C)cc3c2)CC1 [Example 62 in EP 22216126.7],CACO2 Perm.,CACO-2 cells,4.9 10^−6 cm/sec
Cn1cnnc1C1(F)CCN(c2c(C#N)cc(C(F)(F)F)cc2-c2ccc(F)nc2)CC1 [Example 4 in EP 23161417.3],CACO2 Perm.,CACO-2 cells,40.5 10^−6 cm/sec
Cn1cnnc1C1CCN(c2c(C#N)cc(C(F)(F)F)cc2-c2ccc(F)nc2)CC1 [Compound 70 in WO 2024/020517],CACO2 Perm.,CACO-2 cells,9.0 10^−6 cm/sec
Cn1cnnc1C1(F)CCN(c2c(C#N)cc(C(F)(F)F)nc2-c2cnc3nn(C(C)(C)C)c(Cl)c3c2)CC1 [Example 3 in EP 23189886.7],CACO2 Perm.,CACO-2 cells,47.0 10^−6 cm/sec
Cn1cnnc1C1CCN(c2c(C#N)cccc2-c2cnc3nn(C(C)(C)C)cc3c2)CC1 [Example 50 in EP 22216126.7],CACO2 Perm.,CACO-2 cells,0.5 10^−6 cm/sec
Cn1cnnc1C1(F)CCN(c2c(-c3cnc4nn(C(C)(C)C)cc4c3)ccc(C(F)(F)F)c2C#N)CC1 [Example 30 in EP 23161417.3],CACO2 Perm.,CACO-2 cells,1.7 10^−6 cm/sec
Cn1cnnc1C1CCN(c2c(C#N)cc(C(F)(F)F)nc2-c2cnc3nn(C(C)(C)C)c(C(F)(F)F)c3c2)CC1 [Example 13 in EP 23189886.7],CACO2 Perm.,CACO-2 cells,3.7 10^−6 cm/sec
Cn1cnnc1C1CCN(c2c(C#N)cc(Cl)cc2-c2ccc(F)nc2)CC1 [Compound 18 in WO 2024/020517],CACO2 Perm.,CACO-2 cells,23.0 10^−6 cm/sec
Cn1cnnc1C1CCN(c2c(C#N)cc(F)cc2-c2ccc(F)nc2)CC1 [Compound 130 in WO 2024/020517],CACO2 Perm.,CACO-2 cells,24.0 10^−6 cm/sec
Cn1cnnc1C1(F)CCN(c2c(C#N)cc(Cl)cc2-c2cnc3nn(C(C)(C)C)cc3c2)CC1 [Example 19 in EP 23161417.3],CACO2 Perm.,CACO-2 cells,18.0 10^−6 cm/sec
Cn1cnnc1C1(F)CCN(c2c(C#N)cccc2-c2ccnnc2)CC1 [Example 52 in EP 22216126.7],CACO2 Perm.,CACO-2 cells,15.0 10^−6 cm/sec
Cn1cnnc1C1CCN(c2c(-c3ccc(F)nc3)ccnc2C#N)CC1 [Compound 132 in WO 2024/020517],CACO2 Perm.,CACO-2 cells,1.8 10^−6 cm/sec
Cn1cnnc1C1CCN(c2c(-c3cnc4nn(C(C)(C)C)cc4c3)ccc(C(F)(F)F)c2C#N)CC1 [Example 32 in EP 23161417.3],CACO2 Perm.,CACO-2 cells,0.2 10^−6 cm/sec
Cn1cnnc1C1(F)CCN(c2c(C#N)cc(C(F)(F)F)nc2-c2cnc3nn(C(C)(C)C)c(C(F)(F)F)c3c2)CC1 [Example 4 in EP 23189886.7],CACO2 Perm.,CACO-2 cells,99.5 10^−6 cm/sec
Cn1cnnc1C1(F)CCN(c2c(C#N)cc(C3CC3)nc2-c2cnc3nn(C(F)(F)F)cc3c2)CC1 [Example 2],n-fold induction of CYP3A4 at 10 μM,CYP3A4 mRNA,4.6 n-fold
same,pIC50,[1],7.70
same,pIC50,QPCT,9.00
same,Mouse Hepatocyte Stability QH,murine hepatocytes,49%
same,pIC50,QPCTL,9.00
same,Papp A→B,[2],37 ×10⁻⁶ cm/s
same,efflux ratio,[2],1.6
same,pIC50,[3],7.85
Cn1cnnc1C1(F)CCN(c2c(C#N)cc(C(C)(F)F)nc2-c2cnc3nn(C)c(C(F)(F)F)c3c2)CC1 [Example 9],n-fold induction of CYP3A4 at 10 μM,CYP3A4 mRNA,4.2 n-fold
same,pIC50,[1],7.08
same,pIC50,QPCT,8.30
same,Mouse Hepatocyte Stability QH,murine hepatocytes,34%
same,pIC50,QPCTL,8.22
same,Papp A→B,[2],14 ×10⁻⁶ cm/s
same,efflux ratio,[2],6.4
same,pIC50,[3],7.85
Cn1cnnc1C1(F)CCN(c2c(C#N)cc(C(C)(F)F)nc2-c2cnc3nn(C(F)(F)F)cc3c2)CC1 [Example 3],n-fold induction of CYP3A4 at 10 μM,CYP3A4 mRNA,4.2 n-fold
same,pIC50,[1],8.00
same,pIC50,QPCT,8.52
same,Mouse Hepatocyte Stability QH,murine hepatocytes,<12%
same,pIC50,QPCTL,8.52
same,Papp A→B,[2],11 ×10⁻⁶ cm/s
same,efflux ratio,[2],6.4
same,pIC50,[3],8.15
Cn1cnnc1C1(F)CCN(c2c(C#N)cc(C3CC3(F)F)nc2-c2ccnnc2)CC1 (stereo not shown) [Example 6],n-fold induction of CYP3A4 at 10 μM,CYP3A4 mRNA,0.6 n-fold
same,pIC50,[1],6.65
same,pIC50,QPCT,8.22
same,Mouse Hepatocyte Stability QH,murine hepatocytes,<12%
same,pIC50,QPCTL,8.70
same,Papp A→B,[2],0.6 ×10⁻⁶ cm/s
same,efflux ratio,[2],36.1
same,pIC50,[3],7.09
